PubChem BioAssay (NCI)
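Results reflect a 48-hour exposure of cells in 96-well plates to compound at five concentrations. GI50 = concentration required for 50% inhibition of growth. Definition used: TGI = concentration required for complete inhibition of growth.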

How the values were obtained:
Assay in all cases: inhibition of tumour cell growth, NCI panel, 48 h
K-562 leukemia = test system: K-562 leukemia
SNB-75 CNS = test system: SNB-75 CNS
SNB-19 CNS = test system: SNB-19 CNS
HOP-62 NSCLC = test system: HOP-62 NSCLC
A549 NSCLC = test system: A549 NSCLC
MCF7 breast = test system: MCF7 breast
OVCAR-5 ovarian = test system: OVCAR-5 ovarian
KM12 colon = test system: KM12 colon
HCC-2998 colon = test system: HCC-2998 colon
HT29 colon = test system: HT29 colon
PC-3 prostate = test system: PC-3 prostate
NCI-H226 lung = test system: NCI-H226 lung
CCRF-CEM leukemia = test system: CCRF-CEM leukemia
RPMI-8226 leukemia = test system: RPMI-8226 leukemia
NCI/ADR-RES ovarian = test system: NCI/ADR-RES ovarian
BT-549 breast = test system: BT-549 breast
NCI-H23 lung = test system: NCI-H23 lung
MDA-MB-435 = test system: MDA-MB-435
HS 578T breast = test system: HS 578T breast
M14 melanoma = test system: M14 melanoma
MOLT-4 leukemia = test system: MOLT-4 leukemia
HCT-15 colon = test system: HCT-15 colon
A498 renal = test system: A498 renal
HL-60(TB) leukemia = test system: HL-60(TB) leukemia
OVCAR-4 ovarian = test system: OVCAR-4 ovarian
MALME-3M melanoma = test system: MALME-3M melanoma
SK-MEL-5 melanoma = test system: SK-MEL-5 melanoma
SF-268 CNS = test system: SF-268 CNS
COLO 205 colon = test system: COLO 205 colon
SK-MEL-28 melanoma = test system: SK-MEL-28 melanoma
DU-145 prostate = test system: DU-145 prostate
MDA-MB-231 breast = test system: MDA-MB-231 breast
SF-295 CNS = test system: SF-295 CNS
HCT-116 colon = test system: HCT-116 colon
SN12C renal = test system: SN12C renal
RXF 393 renal = test system: RXF 393 renal
ACHN renal = test system: ACHN renal
IGROV1 ovarian = test system: IGROV1 ovarian
LOX IMVI melanoma = test system: LOX IMVI melanoma
U251 CNS = test system: U251 CNS
SW-620 colon = test system: SW-620 colon
CAKI-1 renal = test system: CAKI-1 renal
UACC-62 melanoma = test system: UACC-62 melanoma
UACC-257 melanoma = test system: UACC-257 melanoma
NCI-H522 lung = test system: NCI-H522 lung
SK-MEL-2 melanoma = test system: SK-MEL-2 melanoma
NCI-H460 lung = test system: NCI-H460 lung
HOP-92 NSCLC = test system: HOP-92 NSCLC
SF-539 CNS = test system: SF-539 CNS
OVCAR-3 ovarian = test system: OVCAR-3 ovarian
786-0 renal = test system: 786-0 renal
EKVX NSCLC = test system: EKVX NSCLC
TK-10 renal = test system: TK-10 renal
OVCAR-8 ovarian = test system: OVCAR-8 ovarian
T-47D breast = test system: T-47D breast
SK-OV-3 ovarian = test system: SK-OV-3 ovarian
UO-31 renal = test system: UO-31 renal

c1ccc2nc(N/N=C3\CCCCC3C3CCCCC3)ccc2c1 (centres undefined)
GI50 (K-562 leukemia): 4.85 µM
TGI (K-562 leukemia): > 100 µM
GI50 (SNB-75 CNS): 11.1 µM
TGI (SNB-75 CNS): 30.9 µM
GI50 (SNB-19 CNS): 11.4 µM
TGI (SNB-19 CNS): 24.6 µM
GI50 (HOP-62 NSCLC): 11.8 µM
TGI (HOP-62 NSCLC): 25.7 µM
GI50 (A549 NSCLC): 6.26 µM
TGI (A549 NSCLC): 29.1 µM
GI50 (MCF7 breast): 2.46 µM
TGI (MCF7 breast): 11.7 µM
GI50 (OVCAR-5 ovarian): 8.27 µM
TGI (OVCAR-5 ovarian): 21.5 µM
GI50 (KM12 colon): 4.27 µM
TGI (KM12 colon): 15.7 µM
GI50 (HCC-2998 colon): 3.46 µM
TGI (HCC-2998 colon): 14 µM
GI50 (HT29 colon): 3.7 µM
TGI (HT29 colon): 14.6 µM
GI50 (PC-3 prostate): 3.07 µM
TGI (PC-3 prostate): 17.6 µM
GI50 (NCI-H226 lung): 6.3 µM
TGI (NCI-H226 lung): 22.9 µM
GI50 (CCRF-CEM leukemia): 2.83 µM
TGI (CCRF-CEM leukemia): 14 µM
GI50 (RPMI-8226 leukemia): 2.02 µM
TGI (RPMI-8226 leukemia): 4.76 µM
GI50 (NCI/ADR-RES ovarian): 5.29 µM
TGI (NCI/ADR-RES ovarian): 21 µM
GI50 (BT-549 breast): 9.09 µM
TGI (BT-549 breast): 22.1 µM
GI50 (NCI-H23 lung): 3.89 µM
TGI (NCI-H23 lung): 17.3 µM
GI50 (MDA-MB-435): 6.95 µM
TGI (MDA-MB-435): 21.3 µM
GI50 (HS 578T breast): 10.4 µM
TGI (HS 578T breast): 30.9 µM
GI50 (M14 melanoma): 10.3 µM
TGI (M14 melanoma): 26.5 µM
GI50 (MOLT-4 leukemia): 3.2 µM
TGI (MOLT-4 leukemia): 17.1 µM
GI50 (HCT-15 colon): 3.52 µM
TGI (HCT-15 colon): 14.8 µM
GI50 (A498 renal): 11.4 µM
TGI (A498 renal): 27.9 µM
GI50 (HL-60(TB) leukemia): 3.74 µM
TGI (HL-60(TB) leukemia): 25.6 µM
GI50 (OVCAR-4 ovarian): 3.9 µM
TGI (OVCAR-4 ovarian): 22.8 µM
GI50 (MALME-3M melanoma): 2.36 µM
TGI (MALME-3M melanoma): 12.9 µM
GI50 (SK-MEL-5 melanoma): 2.58 µM
TGI (SK-MEL-5 melanoma): 10.4 µM
GI50 (SF-268 CNS): 10.8 µM
TGI (SF-268 CNS): 24.9 µM
GI50 (COLO 205 colon): 3.26 µM
TGI (COLO 205 colon): 12.7 µM
GI50 (SK-MEL-28 melanoma): 10.9 µM
TGI (SK-MEL-28 melanoma): 24.9 µM
GI50 (DU-145 prostate): 11.9 µM
TGI (DU-145 prostate): 24.8 µM
GI50 (MDA-MB-231 breast): 5.49 µM
TGI (MDA-MB-231 breast): 20.5 µM
GI50 (SF-295 CNS): 2.4 µM
TGI (SF-295 CNS): 11.8 µM
GI50 (HCT-116 colon): 3.32 µM
TGI (HCT-116 colon): 13.5 µM
GI50 (SN12C renal): 6.54 µM
TGI (SN12C renal): 21.1 µM
GI50 (RXF 393 renal): 9.21 µM
TGI (RXF 393 renal): 26.9 µM
GI50 (ACHN renal): 8.02 µM
TGI (ACHN renal): 20.8 µM
GI50 (IGROV1 ovarian): 2.92 µM
TGI (IGROV1 ovarian): 15.4 µM
GI50 (LOX IMVI melanoma): 3.25 µM
TGI (LOX IMVI melanoma): 13.1 µM
GI50 (U251 CNS): 6.44 µM
TGI (U251 CNS): 20.8 µM
GI50 (SW-620 colon): 4.12 µM
TGI (SW-620 colon): 16.3 µM
GI50 (CAKI-1 renal): 4.78 µM
TGI (CAKI-1 renal): 25.3 µM
GI50 (UACC-62 melanoma): 3.89 µM
TGI (UACC-62 melanoma): 15.6 µM
GI50 (UACC-257 melanoma): 10.3 µM
TGI (UACC-257 melanoma): 27.5 µM
GI50 (NCI-H522 lung): 4.97 µM
TGI (NCI-H522 lung): 20.4 µM
GI50 (SK-MEL-2 melanoma): 3.48 µM
TGI (SK-MEL-2 melanoma): 16.6 µM
GI50 (NCI-H460 lung): 3.84 µM
TGI (NCI-H460 lung): 16.5 µM
GI50 (HOP-92 NSCLC): 2.2 µM
TGI (HOP-92 NSCLC): 10 µM
GI50 (SF-539 CNS): 7.69 µM
TGI (SF-539 CNS): 21.4 µM
GI50 (OVCAR-3 ovarian): 13.9 µM
TGI (OVCAR-3 ovarian): 27 µM
GI50 (786-0 renal): 7.12 µM
TGI (786-0 renal): 21.6 µM
GI50 (EKVX NSCLC): 5.22 µM
TGI (EKVX NSCLC): 20.2 µM
GI50 (TK-10 renal): 6.72 µM
TGI (TK-10 renal): 19.5 µM
GI50 (OVCAR-8 ovarian): 11.2 µM
TGI (OVCAR-8 ovarian): 29 µM
GI50 (T-47D breast): 4.33 µM
TGI (T-47D breast): 21.8 µM
GI50 (SK-OV-3 ovarian): 14.8 µM
TGI (SK-OV-3 ovarian): 34.3 µM
GI50 (UO-31 renal): 2.89 µM
TGI (UO-31 renal): 14.4 µM
